Test results as given in ChEMBL document CHEMBL3885881, “DrugMatrix”.

Species on record: Rattus norvegicus
Test: DrugMatrix - Regimen: Daily Repeat
Type: toxicity, organism-based, Sprague-Dawley
Design: regimen Daily Repeat, gender Male, age 6-8 weeks
Settings: in vivo, po, 200 mg/kg, route oral GAVAGE, dose level Low, vehicle .5 % CMC; for ABSOLUTE BASOPHIL / ABSOLUTE EOSINOPHIL / ABSOLUTE LYMPHOCYTE / ABSOLUTE MONOCYTE / ABSOLUTE SEGMENTED NEUTROPHIL / BASOPHIL / EOSINOPHIL / ERYTHROCYTE COUNT / HEMATOCRIT / HEMOGLOBIN / LEUKOCYTE COUNT / LYMPHOCYTE / MEAN CORPUSCULAR HEMOGLOBIN / MEAN CORPUSCULAR HEMOGLOBIN CONCENTRATION / MEAN CORPUSCULAR VOLUME / MONOCYTE / NEUTROPHIL / NUCLEATED RED BLOOD CELLS / PLATELET COUNT: tissue Blood; for ALANINE AMINOTRANSFERASE / ALBUMIN / ALKALINE PHOSPHATASE / ASPARTATE AMINOTRANSFERASE / BLOOD UREA NITROGEN / CARBON DIOXIDE / CHLORIDE / CHOLESTEROL / CREATINE PHOSPHOKINASE / CREATININE / GLUCOSE / LACTATE DEHYDROGENASE / LIPASE / PHOSPHORUS / POTASSIUM / SODIUM / TOTAL BILIRUBIN / TOTAL PROTEIN / URIC ACID: tissue Plasma

Q: With `COc1cc(C(=O)NC2CCCNC2)cc(OC)c1OC` (stereo unspecified) [TROXIPIDE] as the compound, how does the “ABSOLUTE BASOPHIL” value (72 h, time 3 day) read?
A: 0 CELLS/uL

Q: What about the “ABSOLUTE EOSINOPHIL” value (72 h, time 3 day) of the same compound?
A: 136.33 CELLS/uL

Q: And the “ABSOLUTE LYMPHOCYTE” value (72 h, time 3 day)?
A: 11684 CELLS/uL

Q: And the “ABSOLUTE MONOCYTE” value (72 h, time 3 day)?
A: 203.67 CELLS/uL

Q: And the “ABSOLUTE SEGMENTED NEUTROPHIL” value (72 h, time 3 day)?
A: 809.33 CELLS/uL

Q: What about the BASOPHIL (72 h, time 3 day) of the same compound?
A: 0%

Q: And the EOSINOPHIL (72 h, time 3 day)?
A: 1%

Q: What about the “ERYTHROCYTE COUNT” value (72 h, time 3 day) of the same compound?
A: 5.48 x10E6/uL

Q: And the HEMATOCRIT (72 h, time 3 day)?
A: 34.2%

Q: What about the HEMOGLOBIN (72 h, time 3 day) of the same compound?
A: 12.97 G/DL

Q: What about the “LEUKOCYTE COUNT” value (72 h, time 3 day) of the same compound?
A: 12.83 x10E3/uL

Q: And the LYMPHOCYTE (72 h, time 3 day)?
A: 91%

Q: And the “MEAN CORPUSCULAR HEMOGLOBIN” value (72 h, time 3 day)?
A: 23.67 pg

Q: And the “MEAN CORPUSCULAR HEMOGLOBIN CONCENTRATION” value (72 h, time 3 day)?
A: 37.9 G/DL

Q: What about the “MEAN CORPUSCULAR VOLUME” value (72 h, time 3 day) of the same compound?
A: 62.43 fL

Q: And the MONOCYTE (72 h, time 3 day)?
A: 1.67%

Q: What about the NEUTROPHIL (72 h, time 3 day) of the same compound?
A: 6.33%

Q: What about the “NUCLEATED RED BLOOD CELLS” value (72 h, time 3 day) of the same compound?
A: 0.33 /100WBC

Q: And the “PLATELET COUNT” value (72 h, time 3 day)?
A: 1247.33 x10E3/uL

Q: And the “ALANINE AMINOTRANSFERASE” value (72 h, time 3 day)?
A: 38.67 u/L

Q: What about the ALBUMIN (72 h, time 3 day) of the same compound?
A: 4.37 G/DL

Q: What about the “ALKALINE PHOSPHATASE” value (72 h, time 3 day) of the same compound?
A: 413.67 u/L

Q: What about the “ASPARTATE AMINOTRANSFERASE” value (72 h, time 3 day) of the same compound?
A: 80 u/L

Q: And the “BLOOD UREA NITROGEN” value (72 h, time 3 day)?
A: 14 mg/dL

Q: And the “CARBON DIOXIDE” value (72 h, time 3 day)?
A: 26.33 mmol/L

Q: What about the CHLORIDE (72 h, time 3 day) of the same compound?
A: 106 MEQ/L

Q: And the CHOLESTEROL (72 h, time 3 day)?
A: 67 mg/dL

Q: And the “CREATINE PHOSPHOKINASE” value (72 h, time 3 day)?
A: 457.67 u/L

Q: What about the CREATININE (72 h, time 3 day) of the same compound?
A: 0.16 mg/dL

Q: What about the GLUCOSE (72 h, time 3 day) of the same compound?
A: 165 mg/dL

Q: What about the “LACTATE DEHYDROGENASE” value (72 h, time 3 day) of the same compound?
A: 90.67 u/L

Q: And the LIPASE (72 h, time 3 day)?
A: 9 u/L

Q: And the PHOSPHORUS (72 h, time 3 day)?
A: 13.6 mg/dL

Q: What about the POTASSIUM (72 h, time 3 day) of the same compound?
A: 6.02 MEQ/L

Q: What about the SODIUM (72 h, time 3 day) of the same compound?
A: 146.67 MEQ/L

Q: And the “TOTAL BILIRUBIN” value (72 h, time 3 day)?
A: 0.23 mg/dL

Q: What about the “TOTAL PROTEIN” value (72 h, time 3 day) of the same compound?
A: 5.87 G/DL

Q: And the “URIC ACID” value (72 h, time 3 day)?
A: 1.57 mg/dL

Q: And the “ABSOLUTE BASOPHIL” value (120 h, time 5 day)?
A: 0 CELLS/uL

Q: What about the “ABSOLUTE EOSINOPHIL” value (120 h, time 5 day) of the same compound?
A: 142.33 CELLS/uL

Q: What about the “ABSOLUTE LYMPHOCYTE” value (120 h, time 5 day) of the same compound?
A: 13091.33 CELLS/uL

Q: And the “ABSOLUTE MONOCYTE” value (120 h, time 5 day)?
A: 94.33 CELLS/uL

Q: And the “ABSOLUTE SEGMENTED NEUTROPHIL” value (120 h, time 5 day)?
A: 905.33 CELLS/uL

Q: And the BASOPHIL (120 h, time 5 day)?
A: 0%

Q: What about the EOSINOPHIL (120 h, time 5 day) of the same compound?
A: 1%

Q: What about the “ERYTHROCYTE COUNT” value (120 h, time 5 day) of the same compound?
A: 5.5 x10E6/uL

Q: What about the HEMATOCRIT (120 h, time 5 day) of the same compound?
A: 35.17%

Q: And the HEMOGLOBIN (120 h, time 5 day)?
A: 13.37 G/DL

Q: What about the “LEUKOCYTE COUNT” value (120 h, time 5 day) of the same compound?
A: 14.23 x10E3/uL

Q: And the LYMPHOCYTE (120 h, time 5 day)?
A: 92%

Q: What about the “MEAN CORPUSCULAR HEMOGLOBIN” value (120 h, time 5 day) of the same compound?
A: 24.33 pg

Q: What about the “MEAN CORPUSCULAR HEMOGLOBIN CONCENTRATION” value (120 h, time 5 day) of the same compound?
A: 38.03 G/DL

Q: What about the “MEAN CORPUSCULAR VOLUME” value (120 h, time 5 day) of the same compound?
A: 63.97 fL

Q: And the MONOCYTE (120 h, time 5 day)?
A: 0.67%

Q: And the NEUTROPHIL (120 h, time 5 day)?
A: 6.33%

Q: And the “NUCLEATED RED BLOOD CELLS” value (120 h, time 5 day)?
A: 0 /100WBC

Q: And the “PLATELET COUNT” value (120 h, time 5 day)?
A: 1300.67 x10E3/uL

Q: What about the “ALANINE AMINOTRANSFERASE” value (120 h, time 5 day) of the same compound?
A: 40.33 u/L

Q: And the ALBUMIN (120 h, time 5 day)?
A: 4.33 G/DL

Q: And the “ALKALINE PHOSPHATASE” value (120 h, time 5 day)?
A: 383 u/L

Q: What about the “ASPARTATE AMINOTRANSFERASE” value (120 h, time 5 day) of the same compound?
A: 84.33 u/L

Q: What about the “BLOOD UREA NITROGEN” value (120 h, time 5 day) of the same compound?
A: 16.67 mg/dL

Q: What about the “CARBON DIOXIDE” value (120 h, time 5 day) of the same compound?
A: 24.67 mmol/L

Q: And the CHLORIDE (120 h, time 5 day)?
A: 109 MEQ/L

Q: And the CHOLESTEROL (120 h, time 5 day)?
A: 69 mg/dL

Q: And the “CREATINE PHOSPHOKINASE” value (120 h, time 5 day)?
A: 241.67 u/L

Q: And the CREATININE (120 h, time 5 day)?
A: 0.18 mg/dL

Q: What about the GLUCOSE (120 h, time 5 day) of the same compound?
A: 177.67 mg/dL

Q: And the “LACTATE DEHYDROGENASE” value (120 h, time 5 day)?
A: 230 u/L

Q: What about the LIPASE (120 h, time 5 day) of the same compound?
A: 9 u/L

Q: What about the PHOSPHORUS (120 h, time 5 day) of the same compound?
A: 14 mg/dL

Q: What about the POTASSIUM (120 h, time 5 day) of the same compound?
A: 5.49 MEQ/L

Q: And the SODIUM (120 h, time 5 day)?
A: 147.33 MEQ/L

Q: And the “TOTAL BILIRUBIN” value (120 h, time 5 day)?
A: 0.23 mg/dL

Q: What about the “TOTAL PROTEIN” value (120 h, time 5 day) of the same compound?
A: 6.57 G/DL

Q: What about the “URIC ACID” value (120 h, time 5 day) of the same compound?
A: 1.8 mg/dL
